29 compounds from patent publication US6380218B1, “Nicotinamide derivatives” (Pfizer Inc, priority 1997, dated 2002) can be followed below.

Compound `CC(C)(O)c1ccc(CNC(=O)c2cccnc2Oc2cccc(Cl)c2)cc1` [Example 187, 2-(3-Chloro-phenoxy)-N-[4-(1-hydroxy-1-methyl-ethyl)-benzyl]-nicotinamide] came in with a melting point of 57 to 59 °C.

`O=C(NCc1ccccc1Cl)c1cccnc1Oc1cccc(Cl)c1` [Example 189, N-(2-Chloro-benzyl)-2-(3-chloro-phenoxy)-nicotinamide] displayed a melting point of 126 to 128 °C.

As for `NS(=O)(=O)c1ccc(CNC(=O)c2cccnc2Oc2ccc(F)cc2)cc1` [Example 193, 2-(4-Fluoro-phenoxy)-N-(4-sulfamoyl-benzyl)-nicotinamide], the melting point is 222 to 223 °C.

For the compound `NS(=O)(=O)N1CCC(CNC(=O)c2cccnc2Oc2ccc(F)cc2)CC1` [Example 194, 2-(4-Fluoro-phenoxy)-N-(1-sulfamoyl-piperidin-4-ylmethyl)-nicotinamide], the melting point is 225 to 226 °C.

For `O=C(NCC1CCC=CO1)c1cccnc1Oc1ccc(F)cc1` (centres unmarked) [Example 195, N-(3,4-Dihydro-2H-pyran-2-ylmethyl)-2-(4-fluoro-phenoxy)-nicotinamide], the melting point fell in the range of 55 to 57 °C.

As to `N#Cc1cccc(Oc2ncccc2C(=O)NCc2ccc(S(N)(=O)=O)cc2)c1` [Example 196, 2-(3-Cyano-phenoxy)-N-(4-sulfamoyl-benzyl)-nicotinamide], the melting point fell in the range of 179 to 180 °C.

Compound `COc1cccc(Oc2ncccc2C(=O)NCc2ccc(S(N)(=O)=O)cc2)c1` [Example 200, 2-(3-Methoxy-phenoxy)-N-(4-sulfamoyl-benzyl)-nicotinamide] came in with a melting point of 142 to 143 °C.

In turn, `COc1cccc(Oc2ncccc2C(=O)NCc2ccc(C(C)(C)O)cc2)c1` [Example 201, N-[4-(1-Hydroxy-1-methyl-ethyl)-benzyl]-2-(3-methoxy-phenoxy)-nicotinamide] yielded a melting point of 69 to 71 °C.

In turn, `CC(C)(O)c1ccc(CNC(=O)c2cccnc2Oc2cccc(F)c2)cc1` [Example 202, 2-(3-Fluoro-phenoxy)-N-[4-(1-hydroxy-1-methyl-ethyl)-benzyl]-nicotinamide] had a melting point of 106 to 108 °C.

`CC(C)(O)c1ccc(CC(=O)Nc2cccnc2Oc2ccc(F)cc2)cc1` [Example 203, N-[2-(4-Fluoro-phenoxy)-pyridin-3-yl]-2-[4-(1-hydroxy-1-methyl-ethyl)-phenyl]-acetamide] had a melting point of 135 to 137 °C.

Take `CSc1cccc(Oc2ncccc2C(=O)NCc2ccc(C(C)(C)O)cc2)c1` [Example 206, N-[4-(1-Hydroxy-1-methyl-ethyl)-benzyl]-2-(3-methylsulfanyl-phenoxy)-nicotinamide]: the melting point fell in the range of 107 to 109 °C.

As to `CC(C)(O)c1ccc(CNC(=O)c2cccnc2Oc2cccc(S(C)(=O)=O)c2)cc1` [Example 207, N-[4-(1-Hydroxy-1-methyl-ethyl)-benzyl]-2-(3-methanesulfonyl-phenoxy)-nicotinamide], the melting point is 51 to 53 °C.

For the compound `O=C(NCc1ccncc1)c1cccnc1Oc1cccnc1` [Example 208, N-Pyridin4-ylmethyl-2-(pyridin-3-yloxy)-nicotinamide], the melting point lay within 142 to 144 °C.

Compound `Cc1cnc(CNC(=O)c2cccnc2Oc2ccc(F)cc2)cn1` [Example 209, 2-(4-Fluoro-phenoxy)-N-(5-methyl-pyrazin-2-ylmethyl)-nicotinamide] yielded a melting point of 159 °C.

Turning to `CC(C)(O)c1ccc(CC(=O)Nc2cccnc2Oc2cccnc2)cc1` [Example 211, 2-[4-(1-Hydroxy-1-methyl-ethyl)-phenyl]-N-[2-(pyridin-3-yloxy)-pyridin-3-yl]-acetamide], the melting point was in the range of 122 to 124 °C.

In the case of `CC(=O)c1cccc(Oc2ncccc2NC(=O)Cc2ccc(C(C)(C)O)cc2)c1` [Example 213, N-[2-(3-Acetyl-phenoxy)-pyridin-3-yl]-2-[4-(1-hydroxy-1-methyl-ethyl)-phenyl]-acetamide], the melting point was in the range of 85 to 87 °C.

Compound `CC(C)(O)C1CCC(CNC(=O)c2cccnc2Oc2cccc(C#N)c2)CC1` (centres unmarked) [Example 214, 2-(3-Cyano-phenoxy)-N-[4-(1-hydroxy-1-methyl-ethyl)-cyclohexylmethyl]-nicotinamide] had a melting point of 129 to 130 °C.

The compound `O=C1COC(CNC(=O)c2cccnc2Oc2ccc(F)cc2)CN1` (centres unmarked) [Example 216, 2-(4-Fluoro-phenoxy)-N-(5-oxo-morpholin-2-ylmethyl)-nicotinamide] displayed a melting point of 157 to 159 °C.

As to `CC(C)(O)c1ccc(CC(=O)Nc2cccnc2Oc2cccc(C#N)c2)cc1` [Example 218, N-[2-(3-Cyano-phenoxy)-pyridin-3-yl]-2-[4-(1-hydroxy-1methyl-ethyl)-phenyl]-acetamide], the melting point lay within 97 to 99 °C.

In turn, `O=C(NCc1ccc(C(=O)C(F)(F)F)cc1)c1cccnc1Oc1cccnc1` [Example 219, 2-(Pyridin-3-yloxy)-N-(4-trifluoroacetyl-benzyl)-nicotinamide] gave a melting point of 134 to 136 °C.

In turn, `CC(=O)c1cccc(Oc2ncccc2C(=O)NCc2ccncc2)c1` [Example 220, 2-(3-Acetyl-phenoxy)-N-pyridin-4-ylmethyl-nicotinamide] gave a melting point of 148 to 150 °C.

As for `CC(=O)c1cccc(Oc2ncccc2C(=O)NCc2ccc(C(C)(C)O)cc2)c1` [Example 221, 2-(3-Acetyl-phenoxy)-N-[4-(1-hydroxy-1-methyl-ethyl)-benzyl]-nicotinamide], the melting point is 52 to 54 °C.

In turn, `CC(=O)c1cccc(Oc2ncccc2C(=O)NCc2ccccc2Cl)c1` [Example 222, 2-(3-Acetyl-phenoxy)-N-(2-chloro-benzyl)-nicotinamide] registered a melting point of 140 to 142 °C.

`CC(=O)c1cccc(Oc2ncccc2C(=O)NCc2ccc(C(C)O)cc2)c1` (centres unmarked) [Example 223, 2-(3-Acetyl-phenoxy)-N-[4-(1-hydroxy-ethyl)-benzyl]-nicotinamide] gave a melting point of 105 to 107 °C.

In turn, `CC(=O)c1cccc(Oc2ncccc2C(=O)NCc2ccc(S(N)(=O)=O)cc2)c1` [Example 224, 2-(3-Acetyl-phenoxy)-N-(4-sulfamoyl-benzyl)-nicotinamide] came in with a melting point of 162 to 164 °C.

On to `CC(=O)C1CCC(CNC(=O)c2cccnc2Oc2ccc(F)cc2)CC1` (centres unmarked) [Example 229, N-(4-Acetyl-cyclohexylmethyl)-2-(4-fluoro-phenoxy)-nicotinamide], for which the melting point fell in the range of 110 to 111 °C.

Compound `CC(C)(O)c1ccc(CNC(=O)c2cccnc2Oc2ccc(F)cc2F)cc1` [Example 230, 2-(2,4-Difluoro-phenoxy)-N-[4-(1-hydroxy-1-methyl-ethyl)-benzyl]-nicotinamide] came in with a melting point of 92 to 94 °C.

On to `CC(C)(O)c1ccc(CNC(=O)c2cccnc2Oc2ccc(F)c(F)c2)cc1` [Example 231, 2-(3,4-Difluoro-phenoxy)-N-[4-(1-hydroxy-1-methyl-ethyl)-benzyl]-nicotinamide], for which the melting point is 98 to 100 °C.

The compound `O=C(NCc1ccc(C2(O)CCC2)cc1)c1cccnc1Oc1ccc(F)c(F)c1` [Example 232, 2-(3,4-Difluoro-phenoxy)-N-[4-(1-hydroxy-cyclobutyl)-benzyl]-nicotinamide] returned a melting point of 74 to 76 °C.
